In ChEMBL document CHEMBL1201862, “PubChem BioAssay data set” (2004):
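Grown in 96-well plates, cells were treated for 48 hours with each compound at five concentrations. Insufficient inhibition: endpoint recorded as highest concentration tested. GI50 marks 50% less growth.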 The source made the active and inactive calls. No stated cut-off is given here; in the data, active = GI50 up to about 1.1 µM and inactive = higher.

Experiments:
Test in all cases: NCI tumour cell line growth inhibition, 48 h
[1] = tested on: DU-145
[2] = tested on: NCI-H226
[3] = tested on: SK-MEL-28
[4] = tested on: MOLT-4
[5] = tested on: SF-268
[6] = tested on: NCI-H23
[7] = tested on: SF-295
[8] = tested on: HOP-62
[9] = tested on: MDA-MB-231
[10] = tested on: UACC-62
[11] = tested on: IGROV-1
[12] = tested on: ACHN
[13] = tested on: SNB-19
[14] = tested on: 786-0
[15] = tested on: EKVX
[16] = tested on: UACC-257
[17] = tested on: UO-31
[18] = tested on: NCI/ADR-RES
[19] = tested on: RXF 393
[20] = tested on: SN12C
[21] = tested on: K562
[22] = tested on: CCRF-CEM
[23] = tested on: M14
[24] = tested on: MCF7
[25] = tested on: SF-539
[26] = tested on: OVCAR-3
[27] = tested on: NCI-H522
[28] = tested on: NCI-H460
[29] = tested on: A549
[30] = tested on: HCT-15
[31] = tested on: SNB-75
[32] = tested on: OVCAR-4
[33] = tested on: SK-OV-3
[34] = tested on: KM12
[35] = tested on: SW-620
[36] = tested on: LOX IMVI
[37] = tested on: OVCAR-8
[38] = tested on: COLO 205
[39] = tested on: TK-10
[40] = tested on: HOP-92
[41] = tested on: U-251
[42] = tested on: SK-MEL-2
[43] = tested on: SR
[44] = tested on: HT-29
[45] = tested on: HCT-116
[46] = tested on: HCC 2998
[47] = tested on: PC-3
[48] = tested on: CAKI-1
[49] = tested on: SK-MEL-5
[50] = tested on: RPMI-8226
[51] = tested on: BT-549
[52] = tested on: Malme-3M
[53] = tested on: Hs-578T
[54] = tested on: OVCAR-5
[55] = tested on: T47D
[56] = tested on: MDA-MB-435
[57] = tested on: A498
[58] = tested on: MDA-N
[59] = tested on: HL-60

COC(=O)c1c2n(c3ccccc13)C[C@H]1OC(C)(C)O[C@@H]21
GI50 [1]: > 100 µM (inactive)
GI50 [2]: > 100 µM (inactive)
GI50 [3]: > 100 µM (inactive)
GI50 [4]: > 100 µM (inactive)
GI50 [5]: > 100 µM (inactive)
GI50 [6]: > 100 µM (inactive)
GI50 [7]: > 100 µM (inactive)
GI50 [8]: > 100 µM (inactive)
GI50 [9]: > 100 µM (inactive)
GI50 [10]: > 100 µM (inactive)
GI50 [11]: > 100 µM (inactive)
GI50 [12]: > 100 µM (inactive)
GI50 [13]: > 100 µM (inactive)
GI50 [14]: > 100 µM (inactive)
GI50 [15]: > 100 µM (inactive)
GI50 [16]: > 100 µM (inactive)
GI50 [17]: > 100 µM (inactive)
GI50 [18]: > 100 µM (inactive)
GI50 [19]: > 100 µM (inactive)
GI50 [20]: > 100 µM (inactive)
GI50 [21]: > 100 µM (inactive)
GI50 [22]: > 100 µM (inactive)
GI50 [23]: > 100 µM (inactive)
GI50 [24]: > 100 µM (inactive)
GI50 [25]: > 100 µM (inactive)
GI50 [26]: > 100 µM (inactive)
GI50 [27]: > 100 µM (inactive)
GI50 [28]: > 100 µM (inactive)
GI50 [29]: > 100 µM (inactive)
GI50 [30]: > 100 µM
GI50 [31]: > 100 µM (inactive)
GI50 [32]: > 100 µM (inactive)
GI50 [33]: > 100 µM (inactive)
GI50 [34]: > 43.8 µM (inactive)
GI50 [35]: > 100 µM (inactive)
GI50 [36]: > 100 µM (inactive)
GI50 [37]: > 100 µM (inactive)
GI50 [38]: > 100 µM (inactive)
GI50 [39]: > 100 µM (inactive)
GI50 [40]: > 100 µM (inactive)
GI50 [41]: > 100 µM (inactive)
GI50 [42]: > 100 µM (inactive)
GI50 [43]: > 100 µM (inactive)
GI50 [44]: > 100 µM (inactive)
GI50 [45]: > 100 µM (inactive)
GI50 [46]: > 100 µM (inactive)
GI50 [47]: > 100 µM (inactive)
GI50 [48]: > 65.6 µM (inactive)
GI50 [49]: > 100 µM (inactive)
GI50 [50]: > 100 µM (inactive)
GI50 [51]: > 100 µM (inactive)
GI50 [52]: > 47 µM (inactive)
GI50 [53]: > 100 µM (inactive)
GI50 [54]: > 100 µM (inactive)
GI50 [55]: > 100 µM (inactive)
GI50 [56]: > 100 µM (inactive)
GI50 [57]: > 100 µM (inactive)

O=C1C(Cl)=C(NCCCN2CCOCC2)C(=O)c2c(O)ccc(O)c21
GI50 [1]: 1.6 µM (inactive)
GI50 [2]: 3.54 µM (inactive)
GI50 [3]: 1.77 µM (inactive)
GI50 [4]: 1 µM (active)
GI50 [5]: 2.84 µM (inactive)
GI50 [6]: 1.75 µM (inactive)
GI50 [7]: 2.53 µM (inactive)
GI50 [8]: 1.96 µM (inactive)
GI50 [9]: 3.01 µM (inactive)
GI50 [10]: 1.77 µM (inactive)
GI50 [11]: 1.9 µM (inactive)
GI50 [12]: 9.18 µM (inactive)
GI50 [13]: 1.66 µM (inactive)
GI50 [14]: 2.29 µM (inactive)
GI50 [15]: 1 µM (active)
GI50 [16]: 2.35 µM (inactive)
GI50 [17]: 1.64 µM (inactive)
GI50 [19]: 1.75 µM (inactive)
GI50 [20]: 2.01 µM (inactive)
GI50 [21]: 2.62 µM (inactive)
GI50 [22]: 1 µM (active)
GI50 [23]: 1.96 µM (inactive)
GI50 [24]: 1.55 µM (inactive)
GI50 [25]: 1.68 µM (inactive)
GI50 [26]: 1.61 µM (inactive)
GI50 [28]: 3.13 µM (inactive)
GI50 [29]: 3.9 µM (inactive)
GI50 [30]: 1.26 µM
GI50 [31]: 2.38 µM (inactive)
GI50 [33]: 7.89 µM (inactive)
GI50 [34]: 1.85 µM (inactive)
GI50 [35]: 1.95 µM (inactive)
GI50 [36]: 1.8 µM (inactive)
GI50 [37]: 3.99 µM (inactive)
GI50 [39]: 6.28 µM (inactive)
GI50 [41]: 2.19 µM (inactive)
GI50 [42]: 0.228 µM (active)
GI50 [43]: 2.58 µM (inactive)
GI50 [44]: 2.75 µM (inactive)
GI50 [45]: 1.59 µM (inactive)
GI50 [46]: 2.2 µM (inactive)
GI50 [47]: 2.96 µM (inactive)
GI50 [49]: 1.1 µM (active)
GI50 [50]: 0.0598 µM (active)
GI50 [51]: 1.64 µM (inactive)
GI50 [52]: 1.91 µM (inactive)
GI50 [53]: 1.27 µM (inactive)
GI50 [54]: 1.71 µM (inactive)
GI50 [55]: 4.89 µM (inactive)
GI50 [58]: 1.72 µM (inactive)
GI50 [56]: 1.85 µM (inactive)
GI50 [57]: 10 µM (inactive)

Brc1ccc2[nH]cc([C@H]3CN[C@@H](c4c[nH]c5ccc(Br)cc45)CN3)c2c1
GI50 [1]: 2.23 µM (inactive)
GI50 [2]: 2.45 µM (inactive)
GI50 [3]: 8.05 µM (inactive)
GI50 [4]: 2.11 µM (inactive)
GI50 [5]: 2.65 µM (inactive)
GI50 [6]: 1.6 µM (inactive)
GI50 [7]: 4.97 µM (inactive)
GI50 [8]: 3.37 µM (inactive)
GI50 [9]: 1.62 µM (inactive)
GI50 [10]: 5.04 µM (inactive)
GI50 [11]: 1.87 µM (inactive)
GI50 [12]: 1.93 µM (inactive)
GI50 [13]: 2.83 µM (inactive)
GI50 [14]: 2.29 µM (inactive)
GI50 [15]: 2.61 µM (inactive)
GI50 [16]: 3.64 µM (inactive)
GI50 [17]: 1.91 µM (inactive)
GI50 [18]: 1.93 µM (inactive)
GI50 [19]: 2.65 µM (inactive)
GI50 [20]: 2.91 µM (inactive)
GI50 [21]: 1.99 µM (inactive)
GI50 [22]: 2.22 µM (inactive)
GI50 [23]: 1.81 µM (inactive)
GI50 [24]: 1.58 µM (inactive)
GI50 [25]: 2 µM (inactive)
GI50 [26]: 1.79 µM (inactive)
GI50 [27]: 1.79 µM (inactive)
GI50 [28]: 2.36 µM (inactive)
GI50 [29]: 2.52 µM (inactive)
GI50 [30]: 2.04 µM
GI50 [31]: 1.83 µM (inactive)
GI50 [32]: 1.94 µM (inactive)
GI50 [33]: 2.49 µM (inactive)
GI50 [34]: 1.76 µM (inactive)
GI50 [35]: 2.51 µM (inactive)
GI50 [36]: 1.44 µM (inactive)
GI50 [37]: 1.79 µM (inactive)
GI50 [38]: 1.73 µM (inactive)
GI50 [39]: 2.26 µM (inactive)
GI50 [40]: 1.87 µM (inactive)
GI50 [41]: 2.12 µM (inactive)
GI50 [42]: 2.09 µM (inactive)
GI50 [43]: 1.92 µM (inactive)
GI50 [44]: 1.97 µM (inactive)
GI50 [45]: 2.02 µM (inactive)
GI50 [46]: 1.69 µM (inactive)
GI50 [47]: 1.88 µM (inactive)
GI50 [48]: 1.82 µM (inactive)
GI50 [49]: 2.56 µM (inactive)
GI50 [50]: 2.16 µM (inactive)
GI50 [51]: > 41.1 µM (inactive)
GI50 [52]: 2.2 µM (inactive)
GI50 [53]: 4.31 µM (inactive)
GI50 [54]: 2.75 µM (inactive)
GI50 [59]: 1.77 µM (inactive)
GI50 [55]: 2.66 µM (inactive)
GI50 [56]: 1.77 µM (inactive)
GI50 [57]: 2 µM (inactive)
